Assay results taken from ChEMBL document CHEMBL2203035, “Synthesis and docking studies of novel antitumor benzimidazoles” (Bioorg Med Chem, 2012).

Tests used:
[1] = test system: Raji; assay: Inhibition of tumor promotion in human Raji cells assessed as TPA-induced Epstein-Barr virus early antigen activation at 100 mol ratio/TPA after 48 hrs by indirect immunofluorescence analysis relative to TPA alone; type: functional; set-up: scale not given: the % may be the effect or the level left
[2] = test system: Raji; assay: Inhibition of tumor promotion in human Raji cells assessed as TPA-induced Epstein-Barr virus early antigen activation at 10 mol ratio/TPA after 48 hrs by indirect immunofluorescence analysis relative to TPA alone; type: functional; set-up: scale not given: the % may be the effect or the level left
[3] = test system: A549; assay: Cytotoxicity against human A549 cells after 72 hrs by alamar blue assay; type: functional, cell-based; conditions: A549, 72 h
[4] = test system: Raji; assay: Inhibition of tumor promotion in human Raji cells assessed as TPA-induced Epstein-Barr virus early antigen activation at 1000 mol ratio/TPA after 48 hrs by indirect immunofluorescence analysis relative to TPA alone; type: functional; set-up: scale not given: the % may be the effect or the level left
[5] = test system: Raji; assay: Inhibition of tumor promotion in human Raji cells assessed as TPA-induced Epstein-Barr virus early antigen activation at 500 mol ratio/TPA after 48 hrs by indirect immunofluorescence analysis relative to TPA alone; type: functional; set-up: scale not given: the % may be the effect or the level left
[6] = biological target: Urokinase plasminogen activator surface receptor (Homo sapiens, UniProt Q03405); assay: Binding affinity to uPAR
Chain of Urokinase plasminogen activator surface receptor (Q03405 whole entry): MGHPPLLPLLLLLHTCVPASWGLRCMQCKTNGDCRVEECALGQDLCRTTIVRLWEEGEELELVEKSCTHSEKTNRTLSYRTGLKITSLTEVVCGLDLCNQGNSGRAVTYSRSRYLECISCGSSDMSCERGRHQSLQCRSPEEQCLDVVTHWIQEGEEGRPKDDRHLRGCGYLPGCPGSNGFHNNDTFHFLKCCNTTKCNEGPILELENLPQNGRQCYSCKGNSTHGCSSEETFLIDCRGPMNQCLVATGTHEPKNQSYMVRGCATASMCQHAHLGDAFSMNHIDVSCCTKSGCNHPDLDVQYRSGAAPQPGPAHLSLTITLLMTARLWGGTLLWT

[7] = test system: MCF7; assay: cells; conditions: Homo sapiens, MCF7, 48 h
Description: Cytotoxicity against human MCF7 cells after 48 hrs by sulforhodamine B assay

| SMILES | Activity [1] [%] | Activity [2] [%] | IC50 [3] [nM] | Activity [4] [%] | Activity [5] [%] | Ki [6] [nM] | IC50 [7] [µg/well] |
| --- | --- | --- | --- | --- | --- | --- | --- |
| Nc1nc2ccccc2[nH]c1=O | 78.1 | 100 | 9100 | 12.6 | 46.3 | 20.8 |  |
| Nc1c(-c2nc3ccccc3[nH]2)cc(-c2ccccc2)n1-c1nc2ccccc2[nH]1 | 80 | 100 | 7700 | 16.3 | 48.2 | 0.00153 | 1.62 |
| Nc1c(-c2nc3ccccc3[nH]2)cc(-c2ccccc2)n1Cc1nc2ccccc2[nH]1 | 82.6 | 100 | 5100 | 18.7 | 48.3 | 0.00217 | 0.972 |
| O=C1NC2=Nc3ccccc3N(Cc3nc4ccccc4[nH]3)C2=Nc2ccccc21 | 85.6 | 100 | 8500 | 20.5 | 53.1 | 0.00636 | 1.66 |
| CCOC(=O)Cn1c(CN2C3=Nc4ccccc4C(=O)NC3=Nc3ccccc32)nc2ccccc21 | 74.4 | 100 | 8400 | 10.3 | 43.7 | 0.0017 | 0.934 |
| N#CC(C#N)CC(=O)c1ccccc1 |  |  | 9700 |  |  | 0.296 |  |
| N#Cc1cc(-c2ccccc2)n(-c2ccccn2)c1N |  |  | 32000 |  |  | 0.0333 |  |
| N#Cc1cc(-c2ccccc2)n(-c2ccncc2)c1N |  |  | 10700 |  |  | 0.00759 |  |
| N#Cc1cc(-c2ccccc2)n(-c2cccc(Br)c2)c1N |  |  | 13000 |  |  | 0.00411 |  |
| N#Cc1cc(-c2ccccc2)n(-c2ccc(Br)cc2)c1N |  |  | 4600 |  |  | 0.00327 |  |
| N#Cc1cc(-c2ccccc2)n(-c2cccc(Cl)c2)c1N |  |  | 8000 |  |  | 0.00227 |  |
| N#Cc1cc(-c2ccccc2)n(-c2ccc(Cl)cc2)c1N |  |  | 7700 |  |  | 0.00329 |  |
| N#Cc1cc(-c2ccccc2)n(-c2nc3ccccc3[nH]2)c1N | 83.5 | 100 | 12100 | 19.7 | 49.6 | 0.00302 | 1.28 |
| Nc1c(-c2nc3ccccc3[nH]2)cc(-c2ccccc2)n1-c1ccccn1 | 79.1 | 100 | 8000 | 15.9 | 47.3 | 0.00653 | 0.934 |
| Nc1c(-c2nc3ccccc3[nH]2)cc(-c2ccccc2)n1-c1cccc(Br)c1 | 84 | 100 | 13500 | 19.2 | 49.9 | 0.012 | 2.12 |
| Nc1c(-c2nc3ccccc3[nH]2)cc(-c2ccccc2)n1-c1ccc(Br)cc1 | 83.2 | 100 | 12000 | 18.9 | 48 | 0.011 | 0.82 |
| Nc1c(-c2nc3ccccc3[nH]2)cc(-c2ccccc2)n1-c1cccc(Cl)c1 | 80.1 | 100 | 7000 | 17.8 | 48.3 | 0.0044 | 1.7 |
| Nc1c(-c2nc3ccccc3[nH]2)cc(-c2ccccc2)n1-c1ccc(Cl)cc1 | 85.6 | 100 | 9900 | 20.1 | 50.3 | 0.00445 | 0.934 |
| CC1(C)CC[C@]2(C(=O)O)CC[C@]3(C)C(=CC[C@@H]4[C@@]5(C)CC[C@H](O)C(C)(C)[C@@H]5CC[C@]43C)[C@@H]2C1 [OLEANOLIC_ACID] | 80 | 100 |  | 12.7 | 30 |  |  |
| CC/C(=C(\c1ccccc1)c1ccc(OCCN(C)C)cc1)c1ccccc1 [TAMOXIFEN] |  |  |  |  |  |  | 1.82 |
